According to patent US9682043B2, “Method of preparation of mixed phase co-crystals with active agents” (MedCrystalForms, LLC, priority 2003, dated 2017):

Experiment: Intrinsic dissolution of itraconazole mixed phase co-crystals
Assay type: physicochemical
Conditions: 3% sodium lauryl sulfate 20% isopropanol:0.1 N HCl (1:1)
Text: FIG. 5 is a graph showing the intrinsic dissolution rate of itraconazole mixed phase co-crystals in a 3% sodium lauryl sulfate 20% isopropanol:0.1 N HCl (1:1) media.

Itraconazole [Control (Intact API)]
Intrinsic Dissolution Rate: 11.1 mcg/min/cm^2
